# How the values were obtained:
# hiPSC-CM syncytia = experiment: Proarrhythmia screen in 96 well plates using CiPA compounds (voltage sensitive dye, optical mapping); type: cell-based, human; details: hiPSC-CM syncytia on Matrix Plus, 10 × ETPC, 30 min exposure
# Protocol: MatrixPlus coated 6 or 96 well plates were stored at 4 °C, transferred to room temperature on the day of cell plating and rehydrated (30 min) in Hank’s Balanced Salt Solution (HBSS). HBSS was aspirated and hiPSC-CMs were plated essentially as before[17],[22]. Briefly, commercially available iCell[2] Cardiomyocytes (Cellular Dynamics International) were thawed at 37 °C for 4 min, diluted in 7 ml of EB20 medium supplemented with blebbistatin (DMEM:F12, 20%FBS, 0.1% glutamine, 0.2%NEAA, 25 µM blebbistatin) and centrifuged (1000 rpm for 5 min) for removal of cryoprotectants. All work with human pluripotent stem cell derived cardiomyocytes was performed with approval from the University of Michigan Human Pluripotent Stem Cell Research Oversight committee (HPSCRO). All methods with human samples were handled following NIH guidelines. Cells from a single vial were diluted in EB20 with blebbistatin ([…]) and split evenly for plating on Matrigel, CELLvo Matrix and MatrixPLUS. Total amount of cells per functional syncytia varied depending on plate format, six well plates received 150,000 cells in the center of 1 cm diameter of matrix; and 96 well plates received 75,000 cells per well. Lower density plating (25,000 cells per well) was also used to more clearly observe cellular shape. hiPSC-CMs were maintained in cardiomyocyte EB20 supplemented with blebbistatin for 2 days before culture in RPMI supplemented with B27 for another 5 days[1].
# (§1) Proarrhythmia screening assay was performed using voltage sensitive dye (VSD, FluoVolt) and high speed CCD camera (200fps)[24]. […] Supplemental Tables 1–3 outline each drug tested, the CiPA risk classification, the concentrations used and the clinical recorded Cmax for each drug to provide clinical reference for drug concentrations. Cells were then submitted to optical mapping for detection of voltage changes recorded with the CCD camera via selection of appropriate light wavelength (filter 515 nm, green light, Chroma). Movies were analyzed with custom made analysis software (Scroll) for determination of action potential duration and conduction velocity as described before[22],[24],[25].
# Supplemental tables 1-3 outline each drug tested, the CiPA risk classification, the concentrations used and the clinical recorded Cmax for each drug to provide clinical reference for drug concentrations. hiPSC-CM monolayers were then submitted to optical mapping for detection of membrane voltage changes recorded with the CCD camera via selection of appropriate light wavelength (filter 515 nm, green light, Chroma). Movies were analyzed with custom made analysis software (Scroll) for determination of action potential duration and conduction velocity where appropriate.
# hiPSC-CM monolayers = type: cell-based, human
# Protocol: HBSS was aspirated and hiPSC-CMs were plated essentially as before[17],[22]. Briefly, commercially available iCell[2] Cardiomyocytes (Cellular Dynamics International) were thawed at 37 °C for 4 min, diluted in 7 ml of EB20 medium supplemented with blebbistatin (DMEM:F12, 20%FBS, 0.1% glutamine, 0.2%NEAA, 25 µM blebbistatin) and centrifuged (1000 rpm for 5 min) for removal of cryoprotectants. All work with human pluripotent stem cell derived cardiomyocytes was performed with approval from the University of Michigan Human Pluripotent Stem Cell Research Oversight committee (HPSCRO). All methods with human samples were handled following NIH guidelines. […]
# as §1
SMILES,Wells with arrhythmias (hiPSC-CM syncytia),Appearance of arrhythmias of TdP (hiPSC-CM monolayers),Change of beat rate or conduction velocity (hiPSC-CM monolayers)
CC(C)COCC(CN(Cc1ccccc1)c1ccccc1)N1CCCC1 (stereo not drawn) [bepridil],did not yield arrhythmic responses,–,–
CC(C)N(CCC(C(N)=O)(c1ccccc1)c1ccccn1)C(C)C (stereo not drawn) [disopyramide],66%,–,–
CN(CCOc1ccc(NS(C)(=O)=O)cc1)CCc1ccc(NS(C)(=O)=O)cc1 [dofetilide],83%,–,–
COc1ccccc1OCC(O)CN1CCN(CC(=O)Nc2c(C)cccc2C)CC1 (stereo not drawn) [ranolazine],did not detect any arrhythmias,did not observe appearance of arrhythmias of TdP,did not significantly alter beat rate or conduction velocity

# Reference: paper PMC7643060, “Human perinatal stem cell derived extracellular matrix enables rapid maturation of hiPSC-CM structural and functional phenotypes” (Scientific Reports, 2020)
